# Experimental data: patent US20090215778A1, “Alpha-substituted Arylmethyl Piperazine Pyrazolo [1,5-alpha]Pyrimidine Amide Derivatives” (priority 2007, published 2009)
# Assays:
# [1] = biological target: T1, HIV Env six-helix bundle (6HB) structure (Human immunodeficiency virus type 1 group M subtype B, UniProt P04579); experiment: Six-helix bundle (6HB) assay; assay type: cell-based, HIV-1 (strain RF)
# T1 construct: H9 cells chronically infected with HIV-1 (H9/HIV-1RF); endogenous in cells; host or cells: H9 cells chronically infected with HIV-1 strain RF (Env is made from the virus in the infected cells, not by transfection)
# T1 sequence (P04579 32-519): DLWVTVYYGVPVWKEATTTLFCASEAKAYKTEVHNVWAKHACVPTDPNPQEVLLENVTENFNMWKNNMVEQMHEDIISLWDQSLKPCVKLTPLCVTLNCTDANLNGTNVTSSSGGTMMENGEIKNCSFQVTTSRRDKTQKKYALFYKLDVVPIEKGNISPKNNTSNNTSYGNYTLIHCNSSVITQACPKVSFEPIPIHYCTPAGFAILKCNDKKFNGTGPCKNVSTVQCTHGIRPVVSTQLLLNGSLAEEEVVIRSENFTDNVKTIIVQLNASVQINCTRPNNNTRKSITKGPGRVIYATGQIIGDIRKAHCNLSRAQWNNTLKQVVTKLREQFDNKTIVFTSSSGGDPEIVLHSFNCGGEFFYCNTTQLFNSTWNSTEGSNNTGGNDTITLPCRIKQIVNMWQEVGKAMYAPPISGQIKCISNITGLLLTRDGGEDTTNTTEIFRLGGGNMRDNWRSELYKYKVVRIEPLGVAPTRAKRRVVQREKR
# T1 sequence (P04579 520-865): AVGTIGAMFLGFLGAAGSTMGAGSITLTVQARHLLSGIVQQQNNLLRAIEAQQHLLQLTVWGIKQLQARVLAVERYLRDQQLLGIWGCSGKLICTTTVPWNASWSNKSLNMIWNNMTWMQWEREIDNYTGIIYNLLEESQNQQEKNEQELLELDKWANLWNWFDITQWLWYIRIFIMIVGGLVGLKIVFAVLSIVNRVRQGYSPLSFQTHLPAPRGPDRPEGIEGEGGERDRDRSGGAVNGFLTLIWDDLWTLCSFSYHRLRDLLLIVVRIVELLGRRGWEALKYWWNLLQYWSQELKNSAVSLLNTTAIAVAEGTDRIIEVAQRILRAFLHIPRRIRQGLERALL
# How it was run: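 Flow cytometry measured binding of a six-helix-bundle-specific polyclonal antibody, detected with PE-labelled secondary at 4 °C for 45 min, on H9/HIV-1 RF chronically infected cells. Compound was given 30 min at 37 °C before 1 μg/mL soluble CD4 induction for 1 h. Inhibition appears as reduced fluorescence.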
# HIV-1, NL4-3 strain = experiment: Virus infection assay (virus entry and single-cycle infection); assay type: cell-based; settings: Human immunodeficiency virus 1, NL43, TZM-b1, read-out: Nl4
# How it was run: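 Single-cycle entry/infection read-out: β-galactosidase chemiluminescence measured one day after infection. Compounds were present during a 4 h, 37 °C exposure of TZM-b1 reporter cells to NL4-3 virus at MOI 0.01 plus DEAE-dextran (80 μg/mL final), followed by addition of complete medium.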
Compound,IC50 [1] [µM],"IC50 (HIV-1, NL4-3 strain) [µM]"
"COc1ccc(-c2nc3c(C(=O)N4CCN([C@@H](C)c5ccc(S(C)(=O)=O)cc5)C[C@H]4C)cnn3c(C(F)(F)F)c2C)cc1 [methanone, [5-(4-methoxyphenyl)-6-methyl-7-(trifluoromethyl)pyrazolo[1,5-α]pyrimidin-3-yl][(2R)-2-methyl-4-[(1S)-1-[4-(methylsulfonyl)phenyl]ethyl]-1-piperazinyl]-]",1.1 to 10,1.1 to 10
"COc1ccc(-c2nc3c(C(=O)N4CCN(C(CO)c5ccccc5F)C[C@H]4C)cnn3c(C(F)(F)F)c2C)cn1 (stereo partly drawn) [methanone, [(2R)-4-[1-(2-fluorophenyl)-2-hydroxyethyl]-2-methyl-1-piperazinyl][5-(6-methoxy-3-pyridinyl)-6-methyl-7-(trifluoromethyl)pyrazolo[1,5-α]pyrimidin-3-yl]-]",< 1,< 1
"COc1ccc(-c2nc3c(C(=O)N4CCN([C@H](C)c5ccc(F)cc5)C[C@H]4C)cnn3c(C(F)(F)F)c2C)cc1 [methanone, [(2R)-4-[(1R)-1-(4-fluorophenyl)ethyl]-2-methyl-1-piperazinyl][5-(4-methoxyphenyl)-6-methyl-7-(trifluoromethyl)pyrazolo[1,5-α]pyrimidin-3-yl]-]",< 1,< 1
"COc1ccc(-c2nc3c(C(=O)N4CCN(C(CO)c5cccc(OC)c5F)C[C@H]4C)cnn3c(C(F)(F)F)c2C)cc1 (stereo partly drawn) [methanone, [(2R)-4-[1-(2-fluoro-3-methoxyphenyl)-2-hydroxyethyl]-2-methyl-1-piperazinyl][5-(4-methoxyphenyl)-6-methyl-7-(trifluoromethyl)pyrazolo[1,5-α]pyrimidin-3-yl]-]",< 1,< 1
"COc1ccc(-c2nc3c(C(=O)N4CCN(C(CO)c5cc(C)cs5)C[C@H]4C)cnn3c(C(F)(F)F)c2C)cc1 (stereo partly drawn) [methanone, [(2R)-4-[2-hydroxy-1-(4-methyl-2-thienyl)ethyl]-2-methyl-1-piperazinyl][5-(4-methoxyphenyl)-6-methyl-7-(trifluoromethyl)pyrazolo[1,5-α]pyrimidin-3-yl]-]",< 1,< 1
"COc1ccc(-c2nc3c(C(=O)N4CCN([C@@H](CO)c5cc(C)cs5)C[C@H]4C)cnn3c(C(F)(F)F)c2C)cc1 [methanone, [(2R)-4-[(1S)-2-hydroxy-1-(4-methyl-2-thienyl)ethyl]-2-methyl-1-piperazinyl][5-(4-methoxyphenyl)-6-methyl-7-(trifluoromethyl)pyrazolo[1,5-α]pyrimidin-3-yl]-]",< 1,< 1
"COc1ccc(-c2nc3c(C(=O)N4CCN([C@H](CO)c5ccc(C(C)=O)s5)C[C@H]4C)cnn3c(C(F)(F)F)c2C)cc1 [ethanone, 1-[5-[(1R)-2-hydroxy-1-[(3R)-4-[[5-(4-methoxyphenyl)-6-methyl-7-(trifluoromethyl)pyrazolo[1,5-α]pyrimidin-3-yl]carbonyl]-3-methyl-1-piperazinyl]ethyl]-2-thienyl]-]",< 1,1.1 to 10
"COc1ccc(-c2nc3c(C(=O)N4CCN([C@@H](C)c5ccc(N)cc5)C[C@H]4C)cnn3c(C(F)(F)F)c2C)cc1 [methanone, [(2R)-4-[(1S)-1-(4-aminophenyl)ethyl]-2-methyl-1-piperazinyl][5-(4-methoxyphenyl)-6-methyl-7-(trifluoromethyl)pyrazolo[1,5-α]pyrimidin-3-yl]-]",1.1 to 10,< 1
"COc1ccc(-c2nc3c(C(=O)N4CCN(C(c5ccccc5)C(C)(C)O)C[C@H]4C)cnn3c(C(F)(F)F)c2C)cc1 (stereo partly drawn) [methanone, [(2R)-4-(2-hydroxy-2-methyl-1-phenylpropyl)-2-methyl-1-piperazinyl][5-(4-methoxyphenyl)-6-methyl-7-(trifluoromethyl)pyrazolo[1,5-α]pyrimidin-3-yl]-]",< 1,< 1
"COc1ccc(-c2nc3c(C(=O)N4CCN([C@@H](C)c5ccc(C#N)cc5)C[C@H]4C)cnn3c(C(F)(F)F)c2C)cc1 [benzonitrile, 4-[(1S)-1-[(3R)-4-[[5-(4-methoxyphenyl)-6-methyl-7-(trifluoromethyl)pyrazolo[1,5-α]pyrimidin-3-yl]carbonyl]-3-methyl-1-piperazinyl]ethyl]-]",1.1 to 10,< 1
"COc1ccc(-c2nc3c(C(=O)N4CCN(C(CO)c5cccc(NC(N)=O)c5)C[C@H]4C)cnn3c(C(F)(F)F)c2C)cc1 (stereo partly drawn) [urea, N-[3-[2-hydroxy-1-[(3R)-4-[[5-(4-methoxyphenyl)-6-methyl-7-(trifluoromethyl)pyrazolo[1,5-α]pyrimidin-3-yl]carbonyl]-3-methyl-1-piperazinyl]ethyl]phenyl]-]",< 1,1.1 to 10
"COc1ccc(-c2nc3c(C(=O)N4CCN(C(CO)c5cccc(C(C)=O)c5)C[C@H]4C)cnn3c(C(F)(F)F)c2C)cc1 (stereo partly drawn) [ethanone, 1-[3-[2-hydroxy-1-[(3R)-4-[[5-(4-methoxyphenyl)-6-methyl-7-(trifluoromethyl)pyrazolo[1,5-α]pyrimidin-3-yl]carbonyl]-3-methyl-1-piperazinyl]ethyl]phenyl]-]",< 1,< 1
"COc1ccc(-c2nc3c(C(=O)N4CCN([C@@H](CO)c5cccnc5OC)C[C@H]4C)cnn3c(C(F)(F)F)c2C)cc1 [methanone, [(2R)-4-[(1R)-2-hydroxy-1-(2-methoxy-3-pyridinyl)ethyl]-2-methyl-1-piperazinyl][5-(4-methoxyphenyl)-6-methyl-7-(trifluoromethyl)pyrazolo[1,5-α]pyrimidin-3-yl]-]",< 1,< 1
"COc1ccc(-c2nc3c(C(=O)N4CCN([C@@H](C)c5ccn(C)n5)C[C@H]4C)cnn3c(C(F)(F)F)c2C)cc1 [methanone, [5-(4-methoxyphenyl)-6-methyl-7-(trifluoromethyl)pyrazolo[1,5-α]pyrimidin-3-yl][(2R)-2-methyl-4-[(1S)-1-(1-methyl-1H-pyrazol-3-yl)ethyl]-1-piperazinyl]-]",1.1 to 10,< 1
"COc1ccc(-c2nc3c(C(=O)N4CCN([C@H](C)c5cc(F)cc(F)c5)C[C@H]4C)cnn3c(C(F)(F)F)c2C)cc1 [methanone, [(2R)-4-[(1R)-1-(3,5-difluorophenyl)ethyl]-2-methyl-1-piperazinyl][5-(4-methoxyphenyl)-6-methyl-7-(trifluoromethyl)pyrazolo[1,5-α]pyrimidin-3-yl]-]",< 1,< 1
"COc1ccc(-c2nc3c(C(=O)N4CCN(C(C(=O)N(C)C)c5ccccc5)C[C@H]4C)cnn3c(C(F)(F)F)c2C)cc1 (stereo partly drawn) [1-piperazineacetamide, 4-[[5-(4-methoxyphenyl)-6-methyl-7-(trifluoromethyl)pyrazolo[1,5-α]pyrimidin-3-yl]carbonyl]-N,N,3-trimethyl-α-phenyl-, (3R)-]",< 1,< 1
"COc1ccc(-c2nc3c(C(=O)N4CCN(C(CO)c5cnccc5OC)C[C@H]4C)cnn3c(C(F)(F)F)c2C)cc1 (stereo partly drawn) [methanone, [(2R)-4-[2-hydroxy-1-(4-methoxy-3-pyridinyl)ethyl]-2-methyl-1-piperazinyl][5-(4-methoxyphenyl)-6-methyl-7-(trifluoromethyl)pyrazolo[1,5-α]pyrimidin-3-yl]-]",< 1,< 1
"COc1ccc(-c2nc3c(C(=O)N4CCN(C(CNC(C)=O)c5ccccc5)C[C@H]4C)cnn3c(C(F)(F)F)c2C)cc1 (stereo partly drawn) [acetamide, N-[2-[(3R)-4-[[5-(4-methoxyphenyl)-6-methyl-7-(trifluoromethyl)pyrazolo[1,5-α]pyrimidin-3-yl]carbonyl]-3-methyl-1-piperazinyl]-2-phenylethyl]-]",< 1,< 1
"COc1ccc(-c2nc3c(C(=O)N4CCN(C(CO)c5ccc(F)cc5F)C[C@H]4C)cnn3c(C(F)(F)F)c2C)cc1 (stereo partly drawn) [methanone, [(2R)-4-[1-(2,4-difluorophenyl)-2-hydroxyethyl]-2-methyl-1-piperazinyl][5-(4-methoxyphenyl)-6-methyl-7-(trifluoromethyl)pyrazolo[1,5-α]pyrimidin-3-yl]-]",< 1,< 1
"CCOc1ccccc1C(CO)N1CCN(C(=O)c2cnn3c(C(F)(F)F)c(C)c(-c4ccc(OC)cc4)nc23)[C@H](C)C1 (stereo partly drawn) [methanone, [(2R)-4-[1-(2-ethoxyphenyl)-2-hydroxyethyl]-2-methyl-1-piperazinyl][5-(4-methoxyphenyl)-6-methyl-7-(trifluoromethyl)pyrazolo[1,5-α]pyrimidin-3-yl]-]",< 1,< 1
COc1ccc(-c2nc3c(C(=O)N4CCN(C(CO)c5ccc(C(C)=O)s5)C[C@H]4C)cnn3c(C(F)(F)F)c2C)cc1 (stereo partly shown),1.1 to 10,< 1
"COc1ccc(-c2nc3c(C(=O)N4CCN([C@H](C)c5ccccc5)C[C@H]4C)cnn3c(C(F)(F)F)c2C)cc1 [methanone, [5-(4-methoxyphenyl)-6-methyl-7-(trifluoromethyl)pyrazolo[1,5-α]pyrimidin-3-yl][(2R)-2-methyl-4-[(1R)-1-phenylethyl]-1-piperazinyl]-]",< 1,< 1
"COc1ccc(-c2nc3c(C(=O)N4CCN(C(C(=O)O)c5ccccc5)C[C@H]4C)cnn3c(C(F)(F)F)c2C)cc1 (stereo partly drawn) [1-piperazineacetic acid, 4-[[5-(4-methoxyphenyl)-6-methyl-7-(trifluoromethyl)pyrazolo[1,5-α]pyrimidin-3-yl]carbonyl]-3-methyl-α-phenyl-, (3R)-]",> 10.1,> 10.1
